In patent US9493461B2, “Tetracyclic heterocycle compounds and methods of use thereof for the treatment of hepatitis C” (priority 2013, dated 2016):

What was measured:
HCV replicon genotype 1a = assay: HCV replicon assay, genotype 1a (cell ELISA for replicon-encoded NS3/4A); type: cell-based, hepatitis C virus (HCV); conditions: Hepatitis C virus, 96 h, read-out: 1a IC50 (nM), genotype 1a replicon cells, 96 hours incubation, NS3/4A ELISA readout, % of DMSO control
Protocol: Measurement of inhibition by compounds was performed using the HCV replicon system. Several different replicons encoding different HCV genotypes or mutations were used. In addition, potency measurements were made using different formats of the replicon assay, including different ways of measurements and different plating formats. See Jan M. Vrolijk et al., A replicons-based bioassay for the measurement of interferons in patients with chronic hepatitis C, 110 J. V[…] 201 (2003); Steven S. Carroll et al., Inhibition of Hepatitis C Virus RNA Replication by 2′-Modified Nucleoside Analogs, 278(14) J. BIOLOGICAL CHEMISTRY 11979 (2003). However, the underlying principles are common to all of these determinations, and are outlined below.
(§1) Stable neomycin phosphotransferase encoding replicons-harboring cell lines were used, so all cell lines were maintained under G418 selection prior to the assay. Potency was determined using a cell ELISA assay with an antibody to the replicons encoded NS3/4a protease. See Caterina Trozzi et al., In Vitro Selection and Characterization of Hepatitis C Virus Serine Protease Variants Resistant to an Active-Site Peptide Inhibitor, 77(6) J. Virol. 3669 (2003). To initiate an assay, replicon cells were plated in the presence of a dilution series of test compound in the absence of G418. Typically, the assays were performed in a 96-well plate formate for manual operation, or a 384-well plate format for automated assay. Replicon cells and compound were incubated for 96 hours. At the end of the assay, cells were washed free of media and compound, and the cells were then lysed. RNA was quantified indirectly through detection of replicon-encoded NS3/4A protein levels, through an ELISA-based assay with an antibody specific for NS3/4A. IC50 determinations were calculated as a percentage of a DMSO control by fitting the data to a four-parameter fit function and the data obtained is provided in the table below.
(§2) Data for selected compounds of the present invention was obtained for genotypes 1a and 1b using this method and is provided in the table below: […]

HCV replicon genotype 1b = assay: HCV replicon assay, genotype 1b (cell ELISA for replicon-encoded NS3/4A); type: cell-based, hepatitis C virus (HCV); conditions: Hepatitis C virus, 96 h, read-out: 1b IC50 (nM), genotype 1b replicon cells, 96 hours incubation, NS3/4A ELISA readout, % of DMSO control
Protocol: The HCV NS5B inhibitory activity of the present compounds may be tested using assays known in the art. The HCV NS5B polymerase inhibitors described herein have activities in a genotype 1b replicon assay as described in the Examples. The assay is performed by incubating a replicon harboring cell-line in the presence of inhibitor for a set period of time and measuring the effect of the inhibitor on HCV replicon replication either directly by quantifying replicon RNA level, or indirectly by measuring enzymatic activity of a co-encoded reporter enzyme such as luciferase or β-lactamase. By performing a series of such measurements at different inhibitor concentrations, the effective inhibitory concentration of the inhibitor (EC50 or EC90) is determined See Jan M. Vrolijk et al., A replicons-based bioassay for the measurement of interferons in patients with chronic hepatitis C, 110 J. VIROLOGICAL METHODS 201 (2003). Such assays may also be run in an automated format for high through-put screening. See Paul Zuck et al., A cell-based β-lactamase reporter gene assay for the identification of inhibitors of hepatitis C virus replication, 334 ANALYTICAL BIOCHEMISTRY 344 (2004).
Measurement of inhibition by compounds was performed using the HCV replicon system. Several different replicons encoding different HCV genotypes or mutations were used. In addition, potency measurements were made using different formats of the replicon assay, including different ways of measurements and different plating formats. See Jan M. Vrolijk et al., A replicons-based bioassay for the measurement of interferons in patients with chronic hepatitis C, 110 J. VIROLOGICAL METHODS 201 (2003); Steven S. Carroll et al., Inhibition of Hepatitis C Virus RNA Replication by 2′-Modified Nucleoside Analogs, 278(14) J. BIOLOGICAL CHEMISTRY 11979 (2003). However, the underlying principles are common to all of these determinations, and are outlined below.
as §1, §2

Row | SMILES | IC50 (HCV replicon genotype 1a) [nM] | IC50 (HCV replicon genotype 1b) [nM]
1 | CNC(=O)c1c(-c2ccc(F)cc2)oc2cc(N(C)S(C)(=O)=O)c(-c3ccc4nc(CN5CC[C@H](O)C5)n5c6cccc(F)c6cc5c4n3)cc12 [Example 83] | 1.33 | 1.31
2 | CNC(=O)c1c(-c2ccc(F)nc2)oc2cc(N(C)S(C)(=O)=O)c(-c3ccc4ncn5c6cccc(F)c6cc5c4n3)cc12 [Example 7] | 1.49 | 3.6
3 | CNC(=O)c1c(-c2ccc(F)cc2F)oc2cc(N(C)S(C)(=O)=O)c(-c3ccc4nc(CN5CCN(C(C)=O)CC5)n5c6cccc(F)c6cc5c4n3)cc12 [Example 148] | 2.52 | 3.17
4 | CNC(=O)c1c(-c2ccc(F)cc2)oc2cc(N(C)S(C)(=O)=O)c(-c3ccc4nc(CN5CC(OC)C5)n5c6cccc(F)c6cc5c4n3)cc12 [Example 88] | 4.09 | 4.22
5 | CNC(=O)c1c(-c2ccc(F)cc2)oc2cc(N(C)S(C)(=O)=O)c(-c3ccc4nc(CN5CCC(F)(F)CC5)n5c6cccc(F)c6cc5c4n3)cc12 [Example 92] | 14.6 | 23.7
6 | CNC(=O)c1c(-n2cnc(C)n2)oc2cc(N(C)S(C)(=O)=O)c(-c3ccc4ncn5c6cccc(F)c6cc5c4n3)cc12 [Example 13] | 298 | 99.5
7 | CNC(=O)c1c(C2CC2)oc2cc(N(C)S(C)(=O)=O)c(-c3ccc4nc(CN5CC(F)C5)n5c6cccc(F)c6cc5c4n3)cc12 [Example 151] | 2.66 | 3.43
8 | CNC(=O)c1c(-c2ccc(F)cc2F)oc2cc(N(C)S(C)(=O)=O)c(-c3ccc4nc(CN5CCC[C@H]5C(F)(F)F)n5c6cccc(F)c6cc5c4n3)cc12 [Example 145] | 20 | 12.2
9 | CNC(=O)c1c(-c2ccc(F)cc2)nn2cc(N(C)S(C)(=O)=O)c(-c3ccc4ncn5c6cccc(F)c6cc5c4n3)cc12 [Example 16, 2-(4-fluorophenyl)-5-(11-fluoropyrido[3′,2′:4,5]pyrimido[1,6-a]indol-2-yl)-N-methyl-6-(N-methylmethylsulfonamido)pyrazolo[1,5-a]pyridine-3-carboxamide] | 0.954 | 2.22
10 | CNC(=O)c1c(-c2ccc(F)cc2)oc2cc(N(C)S(C)(=O)=O)c(-c3ccc4nc(CN5CC[C@@H](F)C5)n5c6cccc(C#N)c6cc5c4n3)cc12 [Example 121] | 2.95 | 3.25
11 | CCn1cc(-c2oc3cc(N(C)S(C)(=O)=O)c(-c4ccc5nc(CN6CC(F)C6)n6c7cccc(F)c7cc6c5n4)cc3c2C(=O)NC)cn1 [Example 32] | 18.6 | 8.23
12 | CNC(=O)c1c(-c2ccc(F)cc2)oc2cc(N(C)S(C)(=O)=O)c(-c3ccc4c(n3)-c3cc5c(F)cccc5n3C(C)N4)cc12 (centres unmarked) [Example 61, 5-(11-fluoro-6-methyl-5,6-dihydropyrido[3′,2′:4,5]pyrimido[1,6-a]indol-2-yl)-2-(4-fluorophenyl)-N-methyl-6-(N-methylmethylsulfonamido)benzofuran-3-carboxamide] | 2.6 | 3.01
13 | CNC(=O)c1c(-c2ccc(F)cc2F)oc2cc(N(C)S(C)(=O)=O)c(-c3ccc4nc(CN5CC[C@H](F)C5)n5c6cccc(F)c6cc5c4n3)cc12 [Example 45] | 4.43 | 4.29
14 | CNC(=O)c1c(-c2ccc(F)cc2)oc2cc(N(C)S(C)(=O)=O)c(-c3ccc4nc(CC(=O)OC)n5c6cccc(F)c6cc5c4n3)cc12 [Example 63, methyl 2-(11-fluoro-2-(2-(4-fluorophenyl)-3-(methylcarbamoyl)-6-(N-methylmethylsulfonamido)benzofuran-5-yl)pyrido[3′,2′:4,5]pyrimido[1,6-a]indol-6-yl)acetate] | 1.55 | 2.76
15 | CNC(=O)c1c(-c2ccc(F)cc2F)oc2cc(N(C)S(C)(=O)=O)c(-c3ccc4nc(CN5CC6CC5CO6)n5c6cccc(F)c6cc5c4n3)cc12 (centres unmarked) [Example 146] | 3.38 | 3.38
16 | CNC(=O)c1c(-c2ccc(F)cc2)oc2cc(N(C)S(C)(=O)=O)c(-c3ccc4c(n3)-c3cc5c(F)cccc5n3CN4CC(=O)OC)cc12 [Example 69, methyl 2-(11-fluoro-2-(2-(4-fluorophenyl)-3-(methylcarbamoyl)-6-(N-methylmethylsulfonamido)benzofuran-5-yl)pyrido[3′,2′:4,5]pyrimido[1,6-a]indol-5(6H)-yl)acetate] | 9.69 | 6.04
17 | CNC(=O)c1c(-c2ccc(C(F)(F)F)nc2)oc2cc(N(C)S(C)(=O)=O)c(-c3cc4c(cn3)ncn3c5cccc(F)c5cc43)cc12 [Example 17, 5-(11-fluoropyrido[3′,4′:4,5]pyrimido[1,6-a]indol-2-yl)-N-methyl-6-(N-methylmethylsulfonamido)-2-(6-(trifluoromethyl)pyridin-3-yl)benzofuran-3-carboxamide] | 1.27 | 1.78
18 | CNC(=O)c1c(-c2ccc(F)cc2)oc2cc(N(C)S(C)(=O)=O)c(-c3ccc4nc(CCN5CC(F)C5)c5c([nH]c6cccc(F)c65)c4n3)cc12 [54′, 5-(7-fluoro-6-(2-(3-fluoroazetidin-1-yl)ethyl)-11H-indolo[3,2-c][1,5]naphthyridin-2-yl)-2-(4-fluorophenyl)-N-methyl-6-(N-methylmethylsulfonamido)benzofuran-3-carboxamide] | 4.17 | 4.24
19 | CNC(=O)c1c(-c2ccc(F)cc2)oc2cc(N(C)S(C)(=O)=O)c(-c3ccc4nc(CN5CCC5)n5c6cccc(F)c6cc5c4n3)cc12 [Example 84] | 1.34 | 1.96
20 | CNC(=O)c1c(-c2ccc(F)cc2)oc2nc(N(C)S(C)(=O)=O)c(-c3ccc4nc(CN5CC(F)C5)n5c6cccc(F)c6cc5c4n3)cc12 [Example 38, 5-(11-fluoro-6-((3-fluoroazetidin-1-yl)methyl)pyrido[3′,2′:4,5]pyrimido[1,6-a]indol-2-yl)-2-(4-fluorophenyl)-N-methyl-6-(N-methylmethylsulfonamido)furo[2,3-b]pyridine-3-carboxamide] | 6.38 | 14.7
21 | CNC(=O)c1c(-c2ccc(F)cc2)oc2cc(N(C)S(C)(=O)=O)c(-c3cc4c(cn3)nc(CN3CC(C)(C#N)C3)n3c5cccc(F)c5cc43)cc12 [Example 119] | 1.74 | 3.59
22 | CNC(=O)c1c(-c2ccc(F)cc2C)oc2cc(N(C)S(C)(=O)=O)c(-c3ccc4ncn5c6cccc(F)c6cc5c4n3)cc12 [Example 6] | 3.2 | 5.08
23 | CNC(=O)c1c(-c2ccc(C)nc2)oc2cc(N(C)S(C)(=O)=O)c(-c3ccc4nc(CN5CC(F)C5)n5c6cccc(F)c6cc5c4n3)cc12 [Example 28, 5-(11-fluoro-6-((3-fluoroazetidin-1-yl)methyl)pyrido[3′,2′:4,5]pyrimido[1,6-a]indol-2-yl)-N-methyl-6-(N-methylmethylsulfonamido)-2-(6-methylpyridin-3-yl)benzofuran-3-carboxamide] | 15.2 | 5.38
24 | CNC(=O)c1c(-c2ccc(F)cc2F)oc2cc(N(C)S(C)(=O)=O)c(-c3ccc4nc(CN5CCC(F)(F)C5)n5c6cccc(F)c6cc5c4n3)cc12 [Example 46] | 7.76 | 11.3
25 | CNC(=O)c1c(-c2ccc(F)cc2)oc2cc(N(C)S(C)(=O)=O)c(-c3ccc4nc(CC5CC[C@@H](OC)C5)n5c6cccc(C#N)c6cc5c4n3)cc12 (some centres unmarked) [Example 133] | 2.98 | 3.56
